The source made the active and inactive calls. No cut-off for these calls is given here.
Key:
HCT-116 [1] = assay: Antitumor activity against human HCT116 cells xenografted in athymic mouse assessed as tumor growth inhibition at 100 mg/kg, ip qd for 21 days measured on day 11; type: functional; settings: HCT-116, ip, route intraperitoneal, read-out: TGI
Mus musculus [2] = assay: Toxicity in athymic mouse xenografted with human HCT116 cells at 100 mg/kg, ip qd for 21 days measured on day 12; type: organism-based, HCT-116; design: dose 100 mg/kg, route intraperitoneal; settings: in vivo, 504 h
COLO 205 = assay: Antiproliferative activity against human COLO205 cells after 96 hrs by celltiter assay; type: functional, cell-based; settings: COLO 205, 96 h
Histone deacetylase 1 = Histone deacetylase 1 (Homo sapiens, UniProt Q13547)
Sequence of Histone deacetylase 1 (Q13547 whole entry): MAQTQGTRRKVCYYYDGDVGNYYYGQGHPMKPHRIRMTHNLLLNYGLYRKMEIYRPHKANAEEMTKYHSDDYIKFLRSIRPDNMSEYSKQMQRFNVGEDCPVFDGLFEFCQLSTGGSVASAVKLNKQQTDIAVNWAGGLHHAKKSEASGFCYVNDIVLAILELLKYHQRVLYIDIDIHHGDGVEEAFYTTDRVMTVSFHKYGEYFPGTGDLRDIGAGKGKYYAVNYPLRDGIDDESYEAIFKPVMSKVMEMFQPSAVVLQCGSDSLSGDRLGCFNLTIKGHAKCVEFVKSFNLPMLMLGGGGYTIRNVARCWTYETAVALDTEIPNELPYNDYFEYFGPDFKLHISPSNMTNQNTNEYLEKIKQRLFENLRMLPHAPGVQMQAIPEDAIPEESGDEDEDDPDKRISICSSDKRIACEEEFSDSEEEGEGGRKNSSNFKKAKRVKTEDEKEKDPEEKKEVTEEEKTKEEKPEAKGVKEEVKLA
Description: Inhibition of recombinant HDAC1 by fluorimetric assay

HCT-116 [3] = assay: Induction of histone H3 hyperacetylation in human HCT116 cells; type: functional, cell-based
Mus musculus [4] = assay: Induction of histone H3 hyperacetylation in human HCT116 cells xenografted athymic mouse; type: functional, organism-based; settings: HCT-116
A2780 = assay: Antiproliferative activity against human A2780 cells after 96 hrs by celltiter assay; type: functional, cell-based; settings: A2780, 96 h
in vitro [5] = settings: mouse, liver microsomes
Description: (§1) Metabolic stability in mouse liver microsomes assessed as half life

in vitro [6] = settings: human, liver microsomes
HCT-116 [7] = assay: Antiproliferative activity against human HCT116 cells after 96 hrs by celltiter assay; type: functional, cell-based; settings: HCT-116, 96 h
PC-3 = assay: Antiproliferative activity against human PC3 cells after 96 hrs by celltiter assay; type: functional, cell-based; settings: PC-3, 96 h
HCT-116 [8] = assay: Antitumor activity against human HCT116 cells xenografted in athymic mouse assessed as tumor growth inhibition at 60 mg/kg, ip qd for 21 days measured on day 22; type: functional; settings: HCT-116, ip, route intraperitoneal, read-out: TGI
[9] = Toxicity in ip dosed athymic mouse assessed as maximum tolerated dose; type: organism-based; settings: in vivo
[10] = mouse, microsomes
Description: as §1

HCT-116 [11] = assay: Antitumor activity against human HCT116 cells xenografted in athymic mouse assessed as tumor growth inhibition at 75 mg/kg, ip qd for 21 days measured on day 21; type: functional; settings: HCT-116, ip, 504 h, route intraperitoneal, read-out: TGI
HCT-116 [12] = assay: Antitumor activity against human HCT116 cells xenografted in athymic mouse assessed as tumor growth inhibition at 50 mg/kg, ip qd for 21 days measured on day 21; type: functional; settings: HCT-116, ip, 504 h, route intraperitoneal, read-out: TGI

In the case of `CN(C)CC(C)(C)Cn1c(CCc2ccccc2)nc2cc(/C=C/C(=O)NO)ccc21`, the inhibition in vivo at 100 mg/kg (HCT-116 [1]) is reported as 60%, the Activity (Mus musculus [2]) is reported as “Toxic” and the IC50 (COLO 205) is reported as 120 nM. For the same compound, the IC50 (Histone deacetylase 1) was 41 nM.
With `O=C(/C=C/c1ccc2c(c1)nc(CCc1ccccc1)n2CCN1CCCC1)NO` the Activity (HCT-116 [3]) was “Active” and the Activity (Mus musculus [4]) was “Active”.
For `Cl.Cl.O=C(/C=C/c1ccc2c(c1)nc(CCc1ccccc1)n2CCN1CCCC1)NO`, the IC50 (A2780) was 190 nM, the half-life (in vitro [5]) was 2.7 min and the half-life (in vitro [6]) was > 30 min. The IC50 (HCT-116 [7]) was 200 nM and the IC50 (PC-3) was 150 nM.
Work on `O=C(/C=C/c1ccc2c(c1)nc(CCc1ccccc1)n2CCN1CCOCC1)NO` yielded an IC50 (COLO 205) of 2800 nM.
`CCN(CC)CCn1c(CCc2ccccc2)nc2cc(/C=C/C(=O)NO)ccc21` showed an IC50 (COLO 205) of 220 nM, an IC50 (Histone deacetylase 1) of 52 nM and an inhibition in vivo at 60 mg/kg (HCT-116 [8]) of 12%. For the same compound, the MTD [9] was 60 mg/kg.
For `CN(C)CCCn1c(CCc2ccccc2)nc2cc(/C=C/C(=O)NO)ccc21`, the IC50 (COLO 205) was 2000 nM and the IC50 (Histone deacetylase 1) was 190 nM.
`COCCCn1c(CCc2ccccc2)nc2cc(/C=C/C(=O)NO)ccc21` showed an IC50 (COLO 205) of 2200 nM.
Compound `CC(C)Cc1nc2cc(/C=C/C(=O)NO)ccc2n1CCCO` has an IC50 (COLO 205) of 26000 nM and an IC50 (Histone deacetylase 1) of 100 nM.
`COc1cc(Cn2c(CCc3ccccc3)nc3cc(CCC(=O)NO)ccc32)cc(OC)c1OC` showed an IC50 (COLO 205) of 2400 nM.
`CCN(CC)CCn1c(CCc2ccccc2)nc2cc(/C=C/C(=O)NO)ccc21.Cl.Cl` showed an IC50 (A2780) of 100 nM, a half-life (in vitro [5]) of 2.8 min and a half-life (in vitro [6]) of 16 min. It also gave an IC50 (HCT-116 [7]) of 240 nM and an IC50 (PC-3) of 200 nM.
Work on `CC(Cc1nc2cc(/C=C/C(=O)NO)ccc2n1CCCO)c1ccccc1` (centres undefined) yielded an IC50 (COLO 205) of 1700 nM and an IC50 (Histone deacetylase 1) of 80 nM.
With `O=C(/C=C/c1ccc2c(c1)nc(CCc1ccccc1)n2CCCN1CCCC1)NO` the IC50 (COLO 205) was 610 nM and the IC50 (Histone deacetylase 1) was 310 nM.
For `CCCCCCCCc1nc2cc(/C=C/C(=O)NO)ccc2n1CCCO`, the IC50 (COLO 205) was 3700 nM.
Work on `O=C(/C=C/c1ccc2nc(CCc3ccccc3)[nH]c2c1)NO` yielded an IC50 (COLO 205) of 4400 nM and an IC50 (Histone deacetylase 1) of 170 nM.
In the case of `Cl.Cl.O=C(/C=C/c1ccc2c(c1)nc(CCc1ccccc1)n2CCN1CCCCC1)NO`, the IC50 (A2780) is reported as 31 nM, the half-life (in vitro [6]) is reported as 10 min and the IC50 (HCT-116 [7]) is reported as 100 nM. The t1/2 [10] was 1.3 min and the IC50 (PC-3) was 120 nM.
`CN(C)CC(C)(C)Cn1c(CCc2ccccc2)nc2cc(/C=C/C(=O)NO)ccc21.Cl.Cl` gave an IC50 (A2780) of 110 nM, a half-life (in vitro [6]) of 12 min and an IC50 (HCT-116 [7]) of 160 nM. For the same compound, the t1/2 [10] was 1 min and the IC50 (PC-3) was 180 nM.
In the case of `CN(C)CCCCn1c(CCc2ccccc2)nc2cc(/C=C/C(=O)NO)ccc21`, the IC50 (COLO 205) is reported as 1100 nM and the IC50 (Histone deacetylase 1) is reported as 160 nM.
`O=C(/C=C/c1ccc2c(c1)nc(CCc1ccccc1)n2CCN1CCCCC1)NO` showed an IC50 (COLO 205) of 90 nM, an IC50 (Histone deacetylase 1) of 26 nM and an inhibition in vivo at 75 mg/kg (HCT-116 [11]) of 32%. For the same compound, the MTD [9] was 75 mg/kg.
Work on `Cn1c(CCc2ccccc2)nc2cc(C3CC3C(=O)NO)ccc21` (centres undefined) yielded an IC50 (Histone deacetylase 1) of 1300 nM.
For `O=C(/C=C/c1ccc2c(c1)nc(CCc1ccccc1)n2CCc1ccccc1)NO`, the IC50 (COLO 205) was 8800 nM.
`Cn1c(CCc2ccccc2)nc2cc(/C=C/C(=O)NO)ccc21` showed an IC50 (COLO 205) of 1200 nM, an inhibition in vivo at 50 mg/kg (HCT-116 [12]) of 23% and an MTD [9] of 50 mg/kg.
In the case of `CC(C)Cc1nc2cc(CCC(=O)NO)ccc2n1CCCO`, the IC50 (Histone deacetylase 1) is reported as > 10000 nM.
With `O=C(/C=C/c1ccc2c(c1)nc(COCc1ccccc1)n2CCCO)NO` the IC50 (COLO 205) was 4100 nM.
With `CCn1c(CCc2ccccc2)nc2cc(/C=C/C(=O)NO)ccc21` the IC50 (COLO 205) was 1500 nM.
For `O=C(/C=C/c1ccc2c(c1)nc(CCc1ccccc1)n2CCCN1CCOCC1)NO`, the IC50 (COLO 205) was 1900 nM.
For `Nc1ccccc1NC(=O)/C=C/c1ccc2c(c1)nc(CCc1ccccc1)n2Cc1ccccn1`, the IC50 (COLO 205) was 5100 nM and the IC50 (Histone deacetylase 1) was > 100000 nM.
`O=C(/C=C/c1ccc2c(c1)nc(CCc1ccccc1)n2Cc1ccccc1)NO` gave an IC50 (COLO 205) of 1600 nM and an IC50 (Histone deacetylase 1) of 410 nM.
Work on `COc1cc(Cn2c(CCc3ccccc3)nc3cc(/C=C/C(=O)NO)ccc32)cc(OC)c1OC` yielded an IC50 (COLO 205) of 320 nM and an IC50 (Histone deacetylase 1) of 47 nM.
Work on `O=C(/C=C/c1ccc2c(c1)nc(C1CCCCC1)n2CCCO)NO` yielded an IC50 (COLO 205) of 31000 nM.
Compound `O=C(/C=C/c1ccc2c(c1)nc(CCc1ccccc1)n2CCCO)NO` has an IC50 (COLO 205) of 3200 nM.
With `O=C(O)CCn1c(CCc2ccccc2)nc2cc(/C=C/C(=O)NO)ccc21` the IC50 (Histone deacetylase 1) was 2300 nM.
Compound `O=C(CCCCCCC(=O)Nc1ccccc1)NO` [VORINOSTAT] has an MTD [9] of 200 mg/kg.
`O=C(/C=C/c1ccc2nc(CCc3ccccc3)n(Cc3ccccc3)c2c1)NO` showed an IC50 (COLO 205) of 5400 nM and an IC50 (Histone deacetylase 1) of 1200 nM.
`CCCn1c(CCc2ccccc2)nc2cc(/C=C/C(=O)NO)ccc21` gave an IC50 (COLO 205) of 2300 nM and an IC50 (Histone deacetylase 1) of 170 nM.
Work on `O=C(/C=C/c1ccc2c(c1)nc(CCc1ccccc1)n2Cc1ccccn1)NO` yielded an IC50 (COLO 205) of 880 nM and an IC50 (Histone deacetylase 1) of 250 nM.
In the case of `O=C(/C=C/c1ccc2c(c1)nc(CCc1ccccc1)n2CCCn1ccnc1)NO`, the IC50 (COLO 205) is reported as > 100000 nM.
In the case of `O=C(/C=C/c1ccc2c(c1)nc(-c1ccsc1)n2CCCO)NO`, the IC50 (COLO 205) is reported as 31000 nM.
For `Cl.Cn1c(CCc2ccccc2)nc2cc(/C=C/C(=O)NO)ccc21`, the IC50 (A2780) was 730 nM, the half-life (in vitro [5]) was 23 min and the half-life (in vitro [6]) was > 30 min. For the same compound, the IC50 (HCT-116 [7]) was 1300 nM and the IC50 (PC-3) was 890 nM.
In the case of `O=C(/C=C/c1ccc2c(c1)nc(CCc1ccccc1)n2CCCN1CCCC1=O)NO`, the IC50 (COLO 205) is reported as 11000 nM.
`O=C(NO)c1ccc2c(c1)nc(CCc1ccccc1)n2CCCO` gave an IC50 (COLO 205) of 26000 nM.

Reference: ChEMBL document CHEMBL1152878, “N-Hydroxy-1,2-disubstituted-1H-benzimidazol-5-yl acrylamides as novel histone deacetylase inhibitors: design, synthesis, SAR studies, and in vivo antitumor activity” (Bioorg Med Chem Lett, 2009)
